ChEMBL document CHEMBL1909046, “DrugMatrix in vitro pharmacology data”

How the values were obtained:
[1] = target: T1, Alpha-1A adrenergic receptor (Rattus norvegicus, UniProt P43140); test: DRUGMATRIX: Alpha-1A adrenergic receptor radioligand binding (ligand: prazosin); format: cell membranes, Wistar, Submaxillary gland, Membrane; settings: Not Active = under 50% inhibition at 10 µM; for Ki: read-out: Ki
T1 sequence (P43140 whole entry): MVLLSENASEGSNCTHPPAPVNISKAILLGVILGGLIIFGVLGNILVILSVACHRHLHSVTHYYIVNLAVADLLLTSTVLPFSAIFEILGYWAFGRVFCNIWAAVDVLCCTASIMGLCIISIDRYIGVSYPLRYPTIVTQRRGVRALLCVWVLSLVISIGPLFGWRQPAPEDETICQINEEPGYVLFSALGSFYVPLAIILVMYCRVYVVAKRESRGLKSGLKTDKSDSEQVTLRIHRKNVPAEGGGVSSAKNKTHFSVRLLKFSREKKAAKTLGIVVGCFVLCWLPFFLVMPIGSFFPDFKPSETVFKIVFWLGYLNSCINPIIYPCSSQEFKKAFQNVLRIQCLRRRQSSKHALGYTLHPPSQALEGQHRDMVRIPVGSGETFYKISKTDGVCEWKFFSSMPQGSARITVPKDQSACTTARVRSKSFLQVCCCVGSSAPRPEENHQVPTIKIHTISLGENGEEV

[2] = target: T2, Alpha-1D adrenergic receptor (Homo sapiens, UniProt P25100); format: cell membranes, HEK293, Membrane; settings: for Ki: read-out: Ki; as to all read-outs here: in other assays of this panel Not Active means under 50% inhibition at 10 µM
T2 sequence (P25100 whole entry): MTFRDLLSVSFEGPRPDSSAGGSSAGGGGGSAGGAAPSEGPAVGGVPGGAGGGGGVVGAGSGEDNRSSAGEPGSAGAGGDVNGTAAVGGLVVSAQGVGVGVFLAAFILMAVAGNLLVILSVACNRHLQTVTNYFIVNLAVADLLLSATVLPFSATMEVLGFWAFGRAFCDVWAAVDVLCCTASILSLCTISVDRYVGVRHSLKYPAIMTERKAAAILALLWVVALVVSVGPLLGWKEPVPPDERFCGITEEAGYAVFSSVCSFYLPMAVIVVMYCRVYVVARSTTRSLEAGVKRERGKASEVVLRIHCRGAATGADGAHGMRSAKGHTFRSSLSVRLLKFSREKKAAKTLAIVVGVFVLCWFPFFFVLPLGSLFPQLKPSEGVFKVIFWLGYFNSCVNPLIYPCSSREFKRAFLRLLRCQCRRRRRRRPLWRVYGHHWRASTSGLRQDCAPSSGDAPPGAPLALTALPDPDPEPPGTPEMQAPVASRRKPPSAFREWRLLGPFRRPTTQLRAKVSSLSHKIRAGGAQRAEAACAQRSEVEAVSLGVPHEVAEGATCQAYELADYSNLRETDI

[3] = DRUGMATRIX: ATPase, Na+/K+ enzyme inhibition (substrate: ATP); format: tissue-based, Sus scrofa, Heart; settings: Not Active = under 50% inhibition at 10 µM
[4] = DRUGMATRIX: beta-Lactamase enzyme inhibition (substrate: Nitrocefin); set-up: species or system Bacillus cereus; settings: Not Active = under 50% inhibition at 10 µM
[5] = DRUGMATRIX: Calcium Channel Type L, Benzothiazepine radioligand binding (ligand: [3H] Diltiazem); format: cell membranes, Rattus norvegicus, Wistar, Brain, Membrane; settings: Not Active = under 50% inhibition at 10 µM
[6] = target: Vasopressin V1a receptor (Homo sapiens, UniProt P37288); format: cell membranes, Membrane; settings: hek293; also: in other assays of this panel Not Active means under 50% inhibition at 10 µM
Vasopressin V1a receptor, sequence (P37288 whole entry): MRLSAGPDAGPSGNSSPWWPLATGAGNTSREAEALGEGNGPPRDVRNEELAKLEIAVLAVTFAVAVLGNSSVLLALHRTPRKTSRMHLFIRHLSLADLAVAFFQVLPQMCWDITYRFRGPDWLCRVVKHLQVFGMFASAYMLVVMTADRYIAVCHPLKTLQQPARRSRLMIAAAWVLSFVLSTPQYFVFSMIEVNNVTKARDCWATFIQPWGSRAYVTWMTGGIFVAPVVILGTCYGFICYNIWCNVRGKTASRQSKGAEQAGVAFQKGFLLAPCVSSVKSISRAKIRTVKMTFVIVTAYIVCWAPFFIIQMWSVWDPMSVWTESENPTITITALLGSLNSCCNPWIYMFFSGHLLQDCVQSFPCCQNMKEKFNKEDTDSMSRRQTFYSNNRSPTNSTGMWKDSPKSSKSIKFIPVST

[7] = target: C-C chemokine receptor type 5 (Homo sapiens, UniProt P51681); format: cell membranes, Membrane; settings: hek293; also: in other assays of this panel Not Active means under 50% inhibition at 10 µM
C-C chemokine receptor type 5, sequence (P51681 whole entry): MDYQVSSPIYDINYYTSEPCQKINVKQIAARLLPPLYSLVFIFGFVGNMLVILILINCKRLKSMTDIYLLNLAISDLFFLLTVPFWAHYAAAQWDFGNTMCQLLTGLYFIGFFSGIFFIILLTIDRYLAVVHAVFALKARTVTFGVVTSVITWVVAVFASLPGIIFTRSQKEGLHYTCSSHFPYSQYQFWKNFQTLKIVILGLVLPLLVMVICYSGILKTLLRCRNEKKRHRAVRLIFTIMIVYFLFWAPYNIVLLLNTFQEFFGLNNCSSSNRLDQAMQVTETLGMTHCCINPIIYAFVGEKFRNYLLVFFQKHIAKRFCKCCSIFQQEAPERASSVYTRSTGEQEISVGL

[8] = target: Sodium-dependent dopamine transporter (Homo sapiens, UniProt Q01959); test: DRUGMATRIX: Dopamine Transporter radioligand binding (ligand: [125I] RTI-55); format: cell membranes, CHO-K1, Membrane; settings: cho-k1; Not Active = under 50% inhibition at 10 µM
Sodium-dependent dopamine transporter, sequence (Q01959 whole entry): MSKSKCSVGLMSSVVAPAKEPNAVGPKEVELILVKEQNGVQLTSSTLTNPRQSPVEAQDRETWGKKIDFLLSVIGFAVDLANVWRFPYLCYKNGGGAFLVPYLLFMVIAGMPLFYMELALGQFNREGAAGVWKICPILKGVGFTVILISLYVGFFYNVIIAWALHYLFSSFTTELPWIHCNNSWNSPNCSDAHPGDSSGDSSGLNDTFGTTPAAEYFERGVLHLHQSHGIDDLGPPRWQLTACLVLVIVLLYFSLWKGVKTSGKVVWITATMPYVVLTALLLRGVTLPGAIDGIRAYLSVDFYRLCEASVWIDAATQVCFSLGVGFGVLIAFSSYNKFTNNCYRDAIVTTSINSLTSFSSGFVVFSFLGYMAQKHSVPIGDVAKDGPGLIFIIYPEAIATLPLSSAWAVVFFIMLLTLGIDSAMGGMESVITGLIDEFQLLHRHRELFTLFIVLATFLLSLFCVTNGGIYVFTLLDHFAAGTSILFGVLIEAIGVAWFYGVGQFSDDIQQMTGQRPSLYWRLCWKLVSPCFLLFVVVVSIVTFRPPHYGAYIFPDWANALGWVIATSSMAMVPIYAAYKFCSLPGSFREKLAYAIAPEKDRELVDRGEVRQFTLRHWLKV

[9] = target: Histamine H2 receptor (Homo sapiens, UniProt P25021); format: cell membranes, CHO-K1, Membrane; settings: cho-k1; also: in other assays of this panel Not Active means under 50% inhibition at 10 µM
Histamine H2 receptor, sequence (P25021 whole entry): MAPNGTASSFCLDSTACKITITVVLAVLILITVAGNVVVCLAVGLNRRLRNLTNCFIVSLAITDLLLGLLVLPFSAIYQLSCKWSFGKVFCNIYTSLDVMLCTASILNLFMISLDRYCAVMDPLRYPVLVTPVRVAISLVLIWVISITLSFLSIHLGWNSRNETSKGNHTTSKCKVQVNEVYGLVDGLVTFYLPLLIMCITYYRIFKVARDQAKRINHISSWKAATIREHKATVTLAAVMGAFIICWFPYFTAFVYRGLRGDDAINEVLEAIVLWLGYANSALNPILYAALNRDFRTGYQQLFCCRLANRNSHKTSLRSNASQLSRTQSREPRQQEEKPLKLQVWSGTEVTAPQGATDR

[10] = target: cGMP-specific 3',5'-cyclic phosphodiesterase (Homo sapiens, UniProt O76074); test: DRUGMATRIX: Phosphodiesterase PDE5 enzyme inhibition (substrate: [3H]cGMP + cGMP); format: tissue-based, Platelet; settings: platelet; Not Active = under 50% inhibition at 10 µM
[11] = target: T3, Cathepsin G (Homo sapiens, UniProt P08311); format: tissue-based; settings: neutrophil
T3 sequence (P08311 whole entry): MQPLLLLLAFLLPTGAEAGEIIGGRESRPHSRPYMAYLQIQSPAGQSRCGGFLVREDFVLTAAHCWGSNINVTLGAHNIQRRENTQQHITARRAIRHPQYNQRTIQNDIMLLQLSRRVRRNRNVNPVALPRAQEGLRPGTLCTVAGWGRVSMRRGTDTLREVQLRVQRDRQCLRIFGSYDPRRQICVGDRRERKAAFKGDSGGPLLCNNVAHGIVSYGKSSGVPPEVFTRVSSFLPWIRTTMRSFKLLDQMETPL

[12] = target: Protein kinase C alpha type (Homo sapiens, UniProt P17252); format: cell-based; settings: sf9
[13] = target: Tyrosine-protein kinase Fyn (Homo sapiens, UniProt P06241); test: biochemical; format: cell-based, Insect cells
Tyrosine-protein kinase Fyn, sequence (P06241 whole entry): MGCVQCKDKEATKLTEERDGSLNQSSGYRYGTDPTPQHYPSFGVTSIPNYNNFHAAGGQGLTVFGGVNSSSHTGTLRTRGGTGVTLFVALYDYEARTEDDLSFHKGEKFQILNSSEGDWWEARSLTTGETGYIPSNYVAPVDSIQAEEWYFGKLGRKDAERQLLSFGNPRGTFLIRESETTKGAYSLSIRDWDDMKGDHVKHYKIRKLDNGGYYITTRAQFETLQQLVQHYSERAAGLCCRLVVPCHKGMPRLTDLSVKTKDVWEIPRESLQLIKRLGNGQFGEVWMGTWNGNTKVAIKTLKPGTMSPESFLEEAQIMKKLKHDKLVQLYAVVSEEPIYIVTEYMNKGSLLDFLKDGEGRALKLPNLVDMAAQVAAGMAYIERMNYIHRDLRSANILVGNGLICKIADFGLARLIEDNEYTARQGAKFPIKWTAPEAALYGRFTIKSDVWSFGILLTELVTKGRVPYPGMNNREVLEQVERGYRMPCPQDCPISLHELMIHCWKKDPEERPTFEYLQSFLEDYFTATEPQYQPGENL

[14] = target: T4, 5-hydroxytryptamine receptor 1A (Rattus norvegicus, UniProt P19327); format: cell membranes, CHO-K1, Membrane; also: in other assays of this panel Not Active means under 50% inhibition at 10 µM
T4 sequence (P19327 whole entry): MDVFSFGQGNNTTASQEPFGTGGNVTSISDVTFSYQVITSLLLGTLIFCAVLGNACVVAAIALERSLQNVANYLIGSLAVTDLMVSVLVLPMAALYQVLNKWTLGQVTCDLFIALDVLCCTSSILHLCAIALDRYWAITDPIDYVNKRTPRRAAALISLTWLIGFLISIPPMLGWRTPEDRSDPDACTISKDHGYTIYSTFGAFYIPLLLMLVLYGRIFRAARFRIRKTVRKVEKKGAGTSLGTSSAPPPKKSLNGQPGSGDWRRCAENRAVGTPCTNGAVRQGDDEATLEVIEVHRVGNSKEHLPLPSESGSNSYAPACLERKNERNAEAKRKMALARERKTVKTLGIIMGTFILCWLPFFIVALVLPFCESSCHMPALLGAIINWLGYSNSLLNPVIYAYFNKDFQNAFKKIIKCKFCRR

| SMILES | IC50 [3] | Ki [3] | IC50 [4] | Ki [4] | IC50 [6] | IC50 [7] | IC50 [8] | IC50 [9] | IC50 [10] | IC50 [11] | IC50 [12] | IC50 ([13]; insect cells) | IC50 ([14]; cho-k1) | IC50 [1] | IC50 ([2]; hek293) | IC50 [5] | Ki [5] | also measured |
| --- | --- | --- | --- | --- | --- | --- | --- | --- | --- | --- | --- | --- | --- | --- | --- | --- | --- | --- |
| CN(C)CCCC1(c2ccc(F)cc2)OCc2cc(C#N)ccc21 (stereo not drawn) [CITALOPRAM] | Not Active | Not Active | Not Active | Not Active | Not Active | Not Active | Not Active | Not Active | Not Active | Not Active | Not Active | Not Active | Not Active | – | – | – | – | IC50 ([1]; read-out: IC50): 1760 nM; Ki [1]: 711 nM; IC50 ([2]; read-out: IC50): 3290 nM; Ki [2]: 1620 nM; IC50 ([5]; read-out: IC50): 1790 nM; Ki ([5]; read-out: Ki): 1590 nM |
| COC(=O)[C@H](c1ccccc1Cl)N1CCc2sccc2C1 [CLOPIDOGREL] | Not Active | Not Active | Not Active | Not Active | Not Active | Not Active | Not Active | Not Active | Not Active | Not Active | Not Active | Not Active | Not Active | Not Active | Not Active | Not Active | Not Active | – |
| C[C@]12CCC(=O)C=C1CC[C@@H]1[C@@H]2C(=O)C[C@@]2(C)[C@H]1CC[C@]2(O)C(=O)CO [CORTISONE] | Not Active | Not Active | Not Active | Not Active | Not Active | Not Active | Not Active | Not Active | Not Active | Not Active | Not Active | Not Active | Not Active | Not Active | Not Active | Not Active | Not Active | – |
| CC1=Nc2ccc(Cl)cc2S(=O)(=O)N1 [DIAZOXIDE] | Not Active | Not Active | Not Active | Not Active | Not Active | Not Active | Not Active | Not Active | Not Active | Not Active | Not Active | Not Active | Not Active | Not Active | Not Active | Not Active | Not Active | – |
| CC(=O)OCC(=O)[C@@]1(OC(C)=O)[C@@H](C)C[C@H]2[C@@H]3C[C@H](F)C4=CC(=O)C=C[C@]4(C)[C@@]3(F)[C@@H](O)C[C@@]21C [DIFLORASONE DIACETATE] | Not Active | Not Active | Not Active | Not Active | Not Active | Not Active | Not Active | Not Active | Not Active | Not Active | Not Active | Not Active | Not Active | Not Active | Not Active | Not Active | Not Active | – |
| COc1ccc([C@@H]2Sc3ccccc3N(CCN(C)C)C(=O)[C@@H]2OC(C)=O)cc1 [DILTIAZEM] | Not Active | Not Active | Not Active | Not Active | Not Active | Not Active | Not Active | Not Active | Not Active | Not Active | Not Active | Not Active | Not Active | Not Active | Not Active | – | – | IC50 ([5]; read-out: IC50): 28 nM; Ki ([5]; read-out: Ki): 25 nM |
| CCc1ccc(C(=O)C(C)CN2CCCCC2)cc1 (stereo not drawn) [EPERISONE] | Not Active | Not Active | Not Active | Not Active | Not Active | Not Active | Not Active | Not Active | Not Active | Not Active | Not Active | Not Active | Not Active | Not Active | Not Active | Not Active | Not Active | – |
| C=C1CC[C@H](O)C/C1=C/C=C1\CCC[C@]2(C)[C@@H]([C@H](C)/C=C/[C@H](C)C(C)C)CC[C@@H]12 [ERGOCALCIFEROL] | Not Active | Not Active | Not Active | Not Active | Not Active | Not Active | Not Active | Not Active | Not Active | Not Active | Not Active | Not Active | Not Active | Not Active | Not Active | Not Active | Not Active | – |
| CN1C[C@H](C(=O)N[C@]2(C)O[C@@]3(O)[C@@H]4CCCN4C(=O)[C@H](Cc4ccccc4)N3C2=O)C=C2c3cccc4[nH]cc(c34)C[C@H]21 [ERGOTAMINE] | Not Active | Not Active | Not Active | Not Active | Not Active | Not Active | Not Active | Not Active | Not Active | Not Active | Not Active | – | – | – | – | Not Active | Not Active | IC50 ([1]; read-out: IC50): 8.06 nM; Ki [1]: 3.26 nM; IC50 ([2]; read-out: IC50): 49 nM; Ki [2]: 24 nM; IC50 ([13]; read-out: IC50): 3160 nM; IC50 ([14]; read-out: IC50): 0.774 nM; Ki ([14]; read-out: Ki): 0.443 nM |
